{"source": "patent US20060069132A1", "about": "“Azolecarboxamide herbicides” (priority 2004, published 2006)", "key": {"velvetleaf": {"test_system": "velvetleaf", "assay": "Test B pre-/postemergence herbicide test", "assay_type": "in vivo, Abutilon theophrasti", "how_it_was_run": "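Greenhouse pot assay with simultaneous preemergence (treated seed) and postemergence (2–18 cm seedlings) applications of surfactant-containing, non-phytotoxic solvent formulations. Response scored visually 13–15 days later on a 0–100 scale, 100 meaning complete control.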"}, "goosegrass": {"test_system": "goosegrass", "assay": "Test C pre-/postemergence herbicide test", "assay_type": "in vivo, Eleusine indica", "details": "for Goosegrass plant response rating: Preemergence, 500 g ai/ha", "how_it_was_run": "(§1)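 Emerged plants at the 1- to 4-leaf stage (2–18 cm), or freshly planted seeds, received test chemicals in a non-phytotoxic solvent mixture with surfactant. Response was visually scored against controls after 12 to 14 days in the greenhouse, on a 0 (no effect) to 100 (complete control) scale.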"}, "soybean": {"test_system": "soybean", "assay": "Test C pre-/postemergence herbicide test", "assay_type": "in vivo, Glycine max", "details": "for Soybean plant response rating: 500 g ai/ha", "how_it_was_run": "as §1"}, "bermudagrass": {"test_system": "bermudagrass", "assay": "Test C pre-/postemergence herbicide test", "assay_type": "in vivo, Cynodon dactylon", "how_it_was_run": "as §1"}, "morningglory": {"test_system": "morningglory", "assay": "Test C pre-/postemergence herbicide test", "assay_type": "in vivo, Ipomoea coccinea", "parameters": "key to Plant response rating, Morningglory: 0 = no effect, 100 = complete control", "details": "for Morningglory plant response rating: 500 g ai/ha", "how_it_was_run": "as §1"}, "rice": {"test_system": "rice", "assay": "Test B pre-/postemergence herbicide test", "assay_type": "in vivo, Oryza sativa", "details": "for Rice plant response rating: Preemergence, scale 0 to 100; for Plant response rating, Rice: preemergence", "how_it_was_run": "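Species tested were Echinochloa crus-galli, Ipomoea coccinea, Xanthium strumarium and Oryza sativa, treated both before emergence and at the 1- to 4-leaf stage; rice and barnyardgrass were also tested under flooding at 2 leaves. Greenhouse incubation lasted 13–15 days before visual 0–100 scoring.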"}, "woolly cupgrass": {"test_system": "woolly cupgrass", "assay": "Test C pre-/postemergence herbicide test", "assay_type": "in vivo, Eriochloa villosa", "details": "for Cupgrass, Woolly plant response rating: 500 g ai/ha", "how_it_was_run": "as §1"}, "[1]": {"details": "Postemergence, 500 g ai/ha, visual rating after 13 to 15 days, scale 0 (no effect) to 100 (complete control)"}, "[2]": {"details": "Preemergence, 500 g ai/ha, scale 0 to 100"}, "[3]": {"details": "preemergence, 125 g ai/ha, 0 to 100 scale, 0 is no effect, 100 is complete control"}, "[4]": {"details": "125 g ai/ha, scale 0 (no effect) to 100 (complete control), visual, 12 to 14 days, preemergence"}, "[5]": {"details": "250 g ai/ha, scale 0 to 100 (0 no effect, 100 complete control), visual, 12 to 14 days, preemergence"}, "[6]": {"details": "scale 0 to 100, 0 no effect, 100 complete control"}, "[7]": {"details": "Preemergence, scale 0 to 100, 0 no effect, 100 complete control"}, "[8]": {"details": "Preemergence, 500 g ai/ha, scale 0 to 100, 0 no effect, 100 complete control"}, "[9]": {"details": "125 g ai/ha, 0 to 100 scale, 0 is no effect, 100 is complete control"}, "[10]": {"details": "postemergence, 125 g ai/ha, visual rating, scale 0 (no effect) to 100 (complete control)"}, "[11]": {"details": "Postemergence, 125 g ai/ha, scale 0 to 100, 0 no effect, 100 complete control"}, "[12]": {"details": "Postemergence, 250 g ai/ha, scale 0 to 100, 0 no effect, 100 complete control"}, "[13]": {"details": "postemergence, 62 g ai/ha, scale 0 to 100"}, "[14]": {"details": "62 g ai/ha, preemergence, scale 0 to 100"}}, "data": [{"compound": "CCN(C)C(=O)c1cccc(NC(=O)c2cc(C(C)(C)C)nn2CC)c1", "note": "[Compound 48]", "values": [{"measurement": "Plant response rating, Velvetleaf", "setting": "velvetleaf; [1]", "value": 80}, {"measurement": "Velvetleaf plant response rating", "setting": "velvetleaf; [2]", "value": 100}, {"measurement": "Plant response rating, Velvetleaf", "setting": "velvetleaf; [3]", "value": 90}, {"measurement": "Plant response rating (0 = no effect, 100 = complete control), Goosegrass", "setting": "goosegrass; 62 g ai/ha, preemergence", "value": 20}, {"measurement": "Plant response rating, Goosegrass", "setting": "goosegrass; [4]", "value": 70}, {"measurement": "Plant response rating, Goosegrass", "setting": "goosegrass; [5]", "value": 90}, {"measurement": "Goosegrass plant response rating", "setting": "goosegrass; [6]", "value": 90}, {"measurement": "Plant response rating (0 = no effect, 100 = complete control), Soybean", "setting": "soybean; 62 g ai/ha, preemergence", "value": 0}, {"measurement": "Plant response rating, Soybean", "setting": "soybean; [4]", "value": 0}, {"measurement": "Plant response rating, Soybean", "setting": "soybean; [5]", "value": 0}, {"measurement": "Soybean plant response rating", "setting": "soybean; [7]", "value": 30}, {"measurement": "Plant response rating (0 = no effect, 100 = complete control), Bermudagrass", "setting": "bermudagrass; 62 g ai/ha, preemergence", "value": 80}, {"measurement": "Plant response rating, Bermudagrass", "setting": "bermudagrass; [4]", "value": 90}, {"measurement": "Plant response rating, Bermudagrass", "setting": "bermudagrass; [5]", "value": 90}, {"measurement": "Bermudagrass plant response rating", "setting": "bermudagrass; [8]", "value": 95}, {"measurement": "Plant response rating (0 = no effect, 100 = complete control), Morningglory", "setting": "morningglory; 62 g ai/ha, preemergence", "value": 0}, {"measurement": "Plant response rating, Morningglory", "setting": "morningglory; [5]", "value": 0}, {"measurement": "Morningglory plant response rating", "setting": "morningglory; [7]", "value": 20}, {"measurement": "Rice plant response rating", "setting": "rice; 500 g ai/ha", "value": 60}, {"measurement": "Plant response rating, Rice", "setting": "rice; [9]", "value": 10}, {"measurement": "Plant response rating (0 = no effect, 100 = complete control), Cupgrass, Woolly", "setting": "woolly cupgrass; 62 g ai/ha, preemergence", "value": 0}, {"measurement": "Plant response rating, Cupgrass, Woolly", "setting": "woolly cupgrass; [4]", "value": 0}, {"measurement": "Plant response rating, Cupgrass, Woolly", "setting": "woolly cupgrass; [5]", "value": 5}, {"measurement": "Cupgrass, Woolly plant response rating", "setting": "woolly cupgrass; [7]", "value": 20}]}, {"compound": "C#CCn1nc(C(C)(C)C)cc1C(=O)Nc1cccc(C(=O)NCC)c1", "note": "[Compound 50]", "values": [{"measurement": "Plant response rating, Velvetleaf", "setting": "velvetleaf; [1]", "value": 60}, {"measurement": "Velvetleaf plant response rating", "setting": "velvetleaf; [2]", "value": 50}, {"measurement": "Velvetleaf plant response rating", "setting": "velvetleaf; [10]", "value": 40}, {"measurement": "Plant response rating, Velvetleaf", "setting": "velvetleaf; [3]", "value": 20}, {"measurement": "Plant response rating (0 = no effect, 100 = complete control), Goosegrass", "setting": "goosegrass; 62 g ai/ha, preemergence", "value": 40}, {"measurement": "Plant response rating, Goosegrass", "setting": "goosegrass; [4]", "value": 80}, {"measurement": "Plant response rating, Goosegrass", "setting": "goosegrass; [5]", "value": 100}, {"measurement": "Plant response rating, Goosegrass", "setting": "goosegrass; [11]", "value": 30}, {"measurement": "Plant response rating, Goosegrass", "setting": "goosegrass; [12]", "value": 90}, {"measurement": "Goosegrass plant response rating", "setting": "goosegrass; [6]", "value": 100}, {"measurement": "Plant response rating, Goosegrass", "setting": "goosegrass; [13]", "value": 30}, {"measurement": "Plant response rating (0 = no effect, 100 = complete control), Soybean", "setting": "soybean; 62 g ai/ha, preemergence", "value": 0}, {"measurement": "Plant response rating, Soybean", "setting": "soybean; [4]", "value": 0}, {"measurement": "Plant response rating, Soybean", "setting": "soybean; [5]", "value": 0}, {"measurement": "Soybean plant response rating", "setting": "soybean; Postemergence, scale 0 to 100", "value": 100}, {"measurement": "Plant response rating, Soybean", "setting": "soybean; [12]", "value": 100}, {"measurement": "Soybean plant response rating", "setting": "soybean; [7]", "value": 0}, {"measurement": "Plant response rating, Soybean", "setting": "soybean; [13]", "value": 100}, {"measurement": "Plant response rating (0 = no effect, 100 = complete control), Bermudagrass", "setting": "bermudagrass; 62 g ai/ha, preemergence", "value": 0}, {"measurement": "Plant response rating, Bermudagrass", "setting": "bermudagrass; [4]", "value": 0}, {"measurement": "Plant response rating, Bermudagrass", "setting": "bermudagrass; [5]", "value": 0}, {"measurement": "Bermudagrass plant response rating", "setting": "bermudagrass; Postemergence, 500 g ai/ha, scale 0 to 100", "value": 40}, {"measurement": "Plant response rating, Bermudagrass", "setting": "bermudagrass; [11]", "value": 30}, {"measurement": "Bermudagrass plant response rating", "setting": "bermudagrass; Postemergence, 250 g ai/ha, scale 0 to 100", "value": 30}, {"measurement": "Bermudagrass plant response rating", "setting": "bermudagrass; [8]", "value": 10}, {"measurement": "Plant response rating, Bermudagrass", "setting": "bermudagrass; [13]", "value": 0}, {"measurement": "Plant response rating (0 = no effect, 100 = complete control), Morningglory", "setting": "morningglory; 62 g ai/ha, preemergence", "value": 0}, {"measurement": "Plant response rating, Morningglory", "setting": "morningglory; [4]", "value": 0}, {"measurement": "Plant response rating, Morningglory", "setting": "morningglory; [5]", "value": 0}, {"measurement": "Morningglory plant response rating", "setting": "morningglory; Postemergence, scale 0 to 100", "value": 10}, {"measurement": "Plant response rating, Morningglory", "setting": "morningglory; [12]", "value": 0}, {"measurement": "Morningglory plant response rating", "setting": "morningglory; [7]", "value": 0}, {"measurement": "Plant response rating, Morningglory", "setting": "morningglory; [13]", "value": 0}, {"measurement": "Rice plant response rating", "setting": "rice; 500 g ai/ha", "value": 50}, {"measurement": "Plant response rating, Rice", "setting": "rice; [9]", "value": 10}, {"measurement": "Plant response rating (0 = no effect, 100 = complete control), Cupgrass, Woolly", "setting": "woolly cupgrass; 62 g ai/ha, preemergence", "value": 0}, {"measurement": "Plant response rating, Cupgrass, Woolly", "setting": "woolly cupgrass; [4]", "value": 10}, {"measurement": "Plant response rating, Cupgrass, Woolly", "setting": "woolly cupgrass; [5]", "value": 30}, {"measurement": "Cupgrass, Woolly plant response rating", "setting": "woolly cupgrass; Postemergence, scale 0 to 100", "value": 0}, {"measurement": "Plant response rating, Cupgrass, Woolly", "setting": "woolly cupgrass; [11]", "value": 0}, {"measurement": "Plant response rating, Cupgrass, Woolly", "setting": "woolly cupgrass; [12]", "value": 0}, {"measurement": "Cupgrass, Woolly plant response rating", "setting": "woolly cupgrass; [7]", "value": 70}, {"measurement": "Plant response rating, Cupgrass, Woolly", "setting": "woolly cupgrass; [13]", "value": 0}]}, {"compound": "CCn1nc(C(C)(C)C)cc1C(=O)Nc1cccc(C(N)=O)n1", "note": "[Compound 162, 6-[[[3-(1,1-dimethylethyl)-1-ethyl-1H-pyrazol-5-yl]carbonyl]amino]-2-pyridinecarboxamide]", "values": [{"measurement": "Plant response rating, Velvetleaf", "setting": "velvetleaf; 500 g ai/ha, visual rating 0-100, 0 no effect, 100 complete control, preemergence", "value": 100}, {"measurement": "Velvetleaf plant response rating", "setting": "velvetleaf; [10]", "value": 60}, {"measurement": "Velvetleaf plant response rating", "setting": "velvetleaf; postemergence, 500 g ai/ha, visual rating, scale 0 (no effect) to 100 (complete control)", "value": 80}, {"measurement": "Plant response rating, Velvetleaf", "setting": "velvetleaf; [3]", "value": 90}, {"measurement": "Plant response rating, Goosegrass", "setting": "goosegrass; [14]", "value": 60}, {"measurement": "Plant response rating, Goosegrass", "setting": "goosegrass; [4]", "value": 60}, {"measurement": "Goosegrass plant response rating", "setting": "goosegrass; [6]", "value": 80}, {"measurement": "Plant response rating, Soybean", "setting": "soybean; [14]", "value": 15}, {"measurement": "Plant response rating, Soybean", "setting": "soybean; [4]", "value": 75}, {"measurement": "Soybean plant response rating", "setting": "soybean; [7]", "value": 100}, {"measurement": "Plant response rating, Bermudagrass", "setting": "bermudagrass; 62 g ai/ha, preemergence, scale 0 to 100, 0 no effect, 100 complete control", "value": 0}, {"measurement": "Plant response rating, Bermudagrass", "setting": "bermudagrass; [4]", "value": 0}, {"measurement": "Plant response rating, Bermudagrass", "setting": "bermudagrass; [5]", "value": 20}, {"measurement": "Bermudagrass plant response rating", "setting": "bermudagrass; [8]", "value": 40}, {"measurement": "Plant response rating, Morningglory", "setting": "morningglory; [14]", "value": 45}, {"measurement": "Plant response rating, Morningglory", "setting": "morningglory; [4]", "value": 100}, {"measurement": "Morningglory plant response rating", "setting": "morningglory; [7]", "value": 100}, {"measurement": "Plant response rating, Rice", "setting": "rice; 500 g ai/ha, visual rating 0-100, 0 no effect, 100 complete control", "value": 90}, {"measurement": "Plant response rating, Rice", "setting": "rice; [9]", "value": 90}, {"measurement": "Plant response rating, Cupgrass, Woolly", "setting": "woolly cupgrass; [14]", "value": 0}, {"measurement": "Plant response rating, Cupgrass, Woolly", "setting": "woolly cupgrass; [4]", "value": 0}, {"measurement": "Plant response rating, Cupgrass, Woolly", "setting": "woolly cupgrass; [5]", "value": 0}, {"measurement": "Cupgrass, Woolly plant response rating", "setting": "woolly cupgrass; [7]", "value": 100}]}]}
